The source of these data is US20070207202A1, “PHARMACEUTICAL FORMULATIONS OF A MONOHYDRATE CRYSTAL FORM OF 2-(3-FLUORO-4-HYDROXYPHENYL)-7-VINYL-1,3-BENZOXAZOL-5-OL” (Wyeth, priority 2006, published 2007).

Common to all, as to format: physicochemical
Data set [1] is described as follows: Water solubility of the two crystal forms.
Data set [2] is described as follows: Dynamic vapor sorption (hygroscopicity). Particulars: for DVS gain: 0–90% RH. From the text:
Dynamic Vapor Sorption (Allentown, Pa.) was used to measure the hygroscopicity of the anhydrate and monohydrate of the invention (see FIGS. 6 and 7). The step conditions were three hours each at 0%, 30%, 52.5%, 75% and 90% RH, two full cycles.

Data set [3] is described as follows: Short term stability of crystal form (XRPD).
Data set [4] in a line: Medium term stability of crystal form (XRPD and TGA). The method, then:
Samples of monohydrate were stored at room temperature, 56° C., and 70° C. for one week. At room temperature, humidity was maintained at 0% RH. Humidity was not controlled for the higher temperatures.
The samples were analyzed by XRPD and TGA.

Data set [5] can be described thus: Long term stability of crystal forms (XRPD, TGA, HPLC). As to conditions: non-micronized, 40° C./75% RH (monohydrate also 40° C. without humidity control), three months. The method, then:
Non-micronized samples of monohydrate and anhydrate were stored at 40° C./75% RH for three months. The monohydrate was also stored at 40° C. without humidity control. During the three months, the samples were checked after two weeks, one month, two months, and three months.

Data set [6] can be described thus: Separate long term study of micronized and non-micronized anhydrate (XRPD).

For `C=Cc1cc(O)cc2nc(-c3ccc(O)c(F)c3)oc12` [monohydrate, 2-(3-fluoro-4-hydroxyphenyl)-7-vinyl-1,3-benzoxazol-5-ol], the “water solubility compared between the two forms (in words)” value in data set [1] is reported as “significantly lower solubility than the anhydrate”. Also, the “hygroscopicity (DVS weight gain, in words)” value in data set [2] was “largely non-hygroscopic”. Moreover, the DVS gain in data set [2] (listed as monohydrate crystal form) is reported as 0.1% gain (0–90% RH). Moreover, the “crystal form stability by XRPD” value is listed as “stable” in data set [3] (70° C., one hour); “partially dehydrated” in data set [3] (90° C., one half hour); “completely dehydrated” in data set [3] (90° C., one hour). Besides, the “crystal form stability by XRPD and TGA” value is “no obvious dehydration” in data set [4] (56° C., humidity not controlled, one week); “no obvious hydration” in data set [4] (70° C., humidity not controlled, 1 day); “partially dehydrated” in data set [4] (70° C., humidity not controlled, 4 days); “mostly dehydrated” in data set [4] (70° C., humidity not controlled, 7 days); “no obvious dehydration” in data set [4] (room temperature, 0% RH, one week). The “chemical stability by HPLC” value in data set [5] is reported as “chemically stable”. Moreover, the “crystal form transformation by XRPD and TGA” value in data set [5] is “did not transform”.

Turning to `C=Cc1cc(O)cc2nc(-c3ccc(O)c(F)c3)oc12` [anhydrate, 2-(3-fluoro-4-hydroxyphenyl)-7-vinyl-1,3-benzoxazol-5-ol], in data set [2] (listed as anhydrous crystal form), the DVS gain is given as 0.2% gain (0–90% RH). In addition, the “crystal form transformation by XRPD” value in data set [6] (micronized samples, 25° C./60% RH, three months) is recorded as “did not transform to the monohydrate”; in data set [6] (micronized samples, 40° C./75% RH, one month) it was “partially transform to the monohydrate”; in data set [6] (non-micronized samples, 40° C./75% RH) it was “did not show any obvious transformation”.
